Values joined by “and” are separate entries in the source; they are usually repeats but may differ in a detail not shown here. Identical values can stand only once.
System: Salmonella Typhi PhoP-promoter GFP reporter, fluorescence, 4 h
Experiment: Inhibition of PhoP regulon, Salmonella typhi GFP reporter cells, confirmation, 4 h (AID 1850)

Structure (SMILES) | IC50
CCCCCCCNC(=O)C1(CC2CC(c3cccc(Br)c3)=NO2)CCNCC1 (configuration not stated) | 53.7 µM
CCCCn1c(=N)n(CC(=O)c2ccc(Br)s2)c2ccccc21 | 51.4 µM
Cc1ccc(C(=O)NCCN2C3=NC[C@@H](Cc4ccccc4)N3C[C@H]2Cc2ccc(O)cc2)cc1Br | 47.2 µM
O=C(N/N=C/c1ccccc1O)C1SCCCS1 | 87.9 µM
O=C(C[n+]1cnn(CC(=O)c2ccc(Cl)cc2Cl)c1)c1ccc([N+](=O)[O-])cc1 | 37.4 µM
Nc1nc2ccccc2n1Cc1ccc(Cl)c(Cl)c1 | 79.7 µM
OCCCCNCc1ccc(OCc2ccc(Cl)cc2Cl)cc1 | 77.3 µM
C1=C(CCNc2ncnc3c2[nH]c2ccccc23)CCCC1 | 30.7 µM
Oc1c(I)cc(Cl)c2cccnc12 | 9.4 µM
CCn1cc(C(=O)O)c(=O)c2cc(F)c(N3CCN(C(=S)NC(=O)c4ccc(Br)cc4)CC3)cc21 | 12.7 µM
CCCCCCCSc1cc(OC)c(CCNC)cc1OC | 35.9 µM
NC1=NC[C@H](Cc2ccccc2)N1CCCCC1CCCCC1 | 22 µM
NC(=NCCCCCCN=C(N)/N=C(\N)Nc1ccc(Cl)cc1)/N=C(\N)Nc1ccc(Cl)cc1 | 5.4 µM and 7.69 µM and 5.26 µM
Cc1c(CN(C)C)c2c(n1Cc1ccccc1)C(=O)c1ccc(Br)cc1-2 | 76.5 µM
CCCCCCC[N+](CC)(CC)CCCCc1ccc(Cl)cc1 | 54.7 µM
CN1CCN(c2ccc(NC(=O)c3ccc(-c4ccc(Br)cc4)o3)cc2)CC1 | 28.9 µM
O=C(N/N=C/c1ccccn1)c1ccc(Br)o1 | 60.7 µM
COc1cc(C)c(Cc2cnc(N)nc2N)cc1OC | 2.88 µM
O=C(Nc1ccc(Cc2ccncc2)cc1)c1ccc([N+](=O)[O-])o1 | 80.3 µM
CCCN(CCC)CCNC(=O)C1CCN(Cc2nc(-c3ccc(Cl)cc3)oc2C)CC1 | 148 µM
N=c1c2c(n(Cc3ccc(Cl)cc3)c3c1CCC3)CCC2 | 80.3 µM

Structure (SMILES) | IC50
C#CCOCCOCCOCCNc1nc(N2CCN(C(=O)CCCCCCCCCCNC(=O)[C@H]([C@@H](C)CC)n3cc(CCCCN=C(N)N)nn3)CC2)nc(N2CCN(C(=O)CCCCCCCCCCNC(=O)[C@H](CCCCN)n3cc(C)nn3)CC2)n1 | 35.7 µM
NC1=NC[C@@H](Cc2ccc(O)cc2)N1CCCCC1CCCCC1 | 13.7 µM
Clc1ccc(OCCCNCc2ccccc2)c2ccccc12 | 19.2 µM
Oc1c(CN2CCOCC2)cc(COCc2ccccc2)c2cccnc12 | 38.5 µM
COc1ccc(C(=O)NC(=S)NNC(=O)c2cccc(C)c2)cc1 | 61.4 µM
O=S(=O)(Nc1c(S(=O)(=O)c2ccccc2)c2nc3ccccc3nc2n1C1CCCCC1)c1ccccc1 | 5.01 µM
COc1c(N2CCN[C@H](C)C2)c(F)cc2c(=O)c(C(=O)O)cn(C3CC3)c12 | < 0.23 µM
CCCCCCCCCCCCCCCC[N+](C)(C)C | 24.2 µM
CCCCCCCCCCOC(=O)Cn1c(COc2cccc(C)c2)[n+](C)c2ccccc21 | 12.4 µM
O=C(O)c1cc2c(cn1)[nH]c1ccccc12 | 77.7 µM
CN(C)CCCn1c(SCC(=O)N2c3ccccc3Sc3ccccc32)nc2ccccc2c1=O | 62.8 µM
C[C@H]1c2cccc(O)c2C(O)=C2C(=O)[C@]3(O)C(O)=C(C(N)=O)C(=O)[C@@H](N(C)C)[C@@H]3[C@@H](O)[C@@H]21 | 3.98 µM
Cc1cccc(C(=O)NNC(=S)NC(=O)c2cccs2)c1 | 65.7 µM
COc1ccc(C(=O)NNC(=S)NC(=O)c2ccccc2)cc1 | 99.7 µM
CCCCC(CC)CN=C(N)NC(N)=NCCCCCCN=C(N)NC(N)=NCC(CC)CCCC (configuration not stated) | 2.73 µM
O=C(Cc1ccc([N+](=O)[O-])cc1)N/N=C/c1ccc([N+](=O)[O-])o1 | 19.9 µM
CCCCCSc1cc(OC)c(CCNC)cc1OC | 89 µM
O=C(Cn1cc[n+](CC(=O)c2ccc(Cl)cc2Cl)c1)c1ccc(Cl)cc1Cl | 37.5 µM
Cn1c(SCC(=O)N/N=C/c2ccc([N+](=O)[O-])s2)nnc1-c1ccc(Cl)cc1 | 35.8 µM
CCOc1ccc(Nc2c3ccccc3nc3ccccc23)cc1 | 10.2 µM
C#CCOCCOCCOCCNc1nc(N2CCN(C(=O)CCCCCCCCCCNC(=O)[C@H](CCCCN)n3cc(CCO)nn3)CC2)nc(N2CCN(C(=O)CCCCCCCCCCNC(=O)[C@H](CCCCN)n3cc(CCO)nn3)CC2)n1 | 60.3 µM
